# Measurements reported in patent US6676932B2, “Ultraviolet absorbent, photostabilizer, ultraviolet ray-absorbing composition, photostabilized composition and external preparation for skin” (Shiseido Co., Ltd., priority 2001, dated 2004).
# Columns and labels:
# skin = assay: Test of skin irritation: continuous application test (Test Example 3 i); type: in vivo, human; conditions: 10 wt % ultraviolet absorbent, twice daily for 4 weeks
# Protocol: The same samples as in the Test Example 2 were used (at a 10 wt % amount of an ultraviolet absorbent).
# Continuous application test was carried out for 20 healthy subjects per one group. An appropriate amount of each of the samples was coated twice daily for 4 weeks. The effects were assessed according to the following assessment standards.
# Mean score was calculated for the determination of the effect on the basis of the following standards.
# ◯: mean score of more than 0 to less than 1.
# Δ: mean score of 1 or more to less than 2.
# x: mean score of 2 or more.
# [1] = Stabilization effect on perfume under daylight exposure (Test Examples 92 to 181); type: physicochemical; parameters: key: ◯: no change; Δ: almost no change; x: change; conditions: daylight exposure (80 MJ)
# Protocol: Each test sample was prepared for observation of the change of the odor of the test sample (determined by perfume coordinator) before and after daylight exposure (80 MJ).
# [2] = base perfume Spicy, photostabilizer 0.2 wt %
# [3] = natural perfume Lavender oil, photostabilizer 0.1 wt %
# [4] = natural perfume Ylang ylang oil, photostabilizer 0.2 wt %
# [5] = synthetic perfume Citral, photostabilizer 0.1 wt %
# [6] = synthetic perfume Linalool, photostabilizer 0.05 wt %
# [7] = synthetic perfume Linalyl acetate, photostabilizer 0.1 wt %
structure (smiles),measurement,setting,value
"Oc1cc(N2CCOCC2)cnn1 [3-Hydroxy-5-morpholinopyridazine, 3-hydroxy-5-morpholinopyridazine]","Determination (skin reaction, continuous application test)",skin; cream,⊚ (mean score of 0)
same,"Determination (skin reaction, continuous application test)",skin; lotion,⊚ (mean score of 0)
same,odor determination,"[1]; base perfume Muge, photostabilizer 0.05 wt %",◯
same,odor determination,[1]; [2],◯
same,odor determination,"[1]; natural perfume Jasmine oil, photostabilizer 0.05 wt %",◯
same,odor determination,[1]; [3],◯
same,odor determination,[1]; [4],◯
same,odor determination,[1]; [5],◯
same,odor determination,[1]; [6],◯
same,odor determination,[1]; [7],◯
same,odor determination,"[1]; synthetic perfume Rose oxide, photostabilizer 0.2 wt %",◯
"Oc1nncc(N2CCCCC2)c1N1CCCCC1 [4,5-Dipiperidino-3-hydroxypyridazine]","Determination (skin reaction, continuous application test)",skin; cream,⊚ (mean score of 0)
same,"Determination (skin reaction, continuous application test)",skin; lotion,⊚ (mean score of 0)
same,odor determination,"[1]; base perfume Rose, photostabilizer 0.05 wt %",◯
same,odor determination,[1]; [2],◯
same,odor determination,"[1]; base perfume Woody, photostabilizer 0.1 wt %",◯
same,odor determination,[1]; [3],◯
same,odor determination,"[1]; natural perfume Rose oil, photostabilizer 0.05 wt %",◯
same,odor determination,[1]; [4],◯
same,odor determination,[1]; [5],◯
same,odor determination,[1]; [6],◯
same,odor determination,[1]; [7],◯
